Experimental data taken from patent US11440909B2, “10H-phenothiazine ferroptosis inhibitor as well as the preparative method and the use thereof” (CHENGDU HENGHAO INVESTMENT CO. LIMITED, priority 2018, dated 2022).

Tested on: fibrosarcoma cell line HT1080
Test: Ferroptosis screening model (MTT method), Erastin-induced ferroptosis
Assay type: cell-based, human
Settings: HT1080, ferroptosis inducer Erastin, 72 h, average of three tests, read-out: EC50
Description: The screening model for ferroptosis mainly used MTT method. First, the fibrosarcoma cell line HT1080 was cultured in a dish, and the cells in the logarithmic growth phase were inoculated into a 96-well plate in a certain number (3000-10000 cells/well), 100 μL per well, and then the plate was put in an 5% CO2 incubator at 37° C., to allow the cells to adhere. After 24 h, 100 μL compound solution at a certain concentration prepared in the designated medium and ferroptosis inducer Erastin (with a final concentration of […]) were added, setting 3 replicate wells for each compound to ensure the accuracy of the results, and a negative control group, a positive control group (Fer-15 μM), a blank control group and a solvent control group were included. After addition of drugs, the plate was placed in an incubator and cultivated for 72 h. On the day of MTT experiment, MTT test solution (5 mg/mL MTT solution dissolved in physiological saline, and stored in the dark at 4° C.) was pre-prepared and 20 μL MTT solution was added to each well, then the plate was put in an incubator and continued to incubate for 2-4 h. After that, 50 μL of 20% SDS solution (dissolved in MiliiQ water, added with 1% concentrated hydrochloric acid) was added to each well and kept in an incubator overnight. On the next day, the absorbance at 570 nm was measured with a microplate reader, to calculate the inhibition rate of drugs on ferroptosis. Generally, the absorbance value of the control group should be in the range of 0.8-1.2 as a normal value.
GraphPadPrism5 software was used to fit the change curve of inhibition rate and calculate the EC50.

EC50 [µM] | Structure (SMILES)
0.003 | CC(c1ccccc1)c1ccc2c(c1)Nc1ccccc1S2 (stereo not drawn) [Compound A1, 2-(1-phenylethyl)-10H-phenothiazine]
0.017 | CC(C)Oc1ccc(C(C)c2ccc3c(c2)Nc2ccccc2S3)cc1 (stereo not drawn) [Compound A33, 2-(1-(4-isopropoxylphenyl)ethyl)-10H-phenothiazine]
0.065 | CC(C)Oc1ccc(C(C)c2ccc3c(c2)Nc2ccccc2S3)cc1 (stereo not drawn) [Compound A34, 2-(1-(4-isopropoxylphenyl)ethyl)-10H-phenothiazine]

Same assay, conditions: Homo sapiens, HT-1080, 72 h, HT1080, ferroptosis inducer Erastin, 72 h, average of three tests, read-out: EC50

Structure (SMILES) | EC50 [µM]
CC(c1cccc(F)c1)c1ccc2c(c1)Nc1ccccc1S2 (stereo not drawn) [Compound A2, 2-(1-(3-fluorophenyl)ethyl)-10H-phenothiazine] | 0.006
CC(c1cccc(Cl)c1)c1ccc2c(c1)Nc1ccccc1S2 (stereo not drawn) [Compound A3, 2-(1-(3-chlorophenyl)ethyl)-10H-phenothiazine] | 0.005
CC(c1cccc(I)c1)c1ccc2c(c1)Nc1ccccc1S2 (stereo not drawn) [Compound A4, 2-(1-(3-iodophenyl)ethyl)-10H-phenothiazine] | 0.005
CC(c1cccc(C#N)c1)c1ccc2c(c1)Nc1ccccc1S2 (stereo not drawn) [Compound A5, 3-(1-(10H-phenothiazin-2-yl)ethyl)benzonitrile] | 0.015
CC(c1cccc(O)c1)c1ccc2c(c1)Nc1ccccc1S2 (stereo not drawn) [Compound A6, 3-(1-(10H-phenothiazin-2-yl)ethyl)phenol] | 0.005
CC(C)c1cccc(C(C)c2ccc3c(c2)Nc2ccccc2S3)c1 (stereo not drawn) [Compound A10, 2-(1-(3-isopropylphenyl)ethyl)-10H-phenothiazine] | 0.012
CCOc1cccc(C(C)c2ccc3c(c2)Nc2ccccc2S3)c1 (stereo not drawn) [Compound A11, 2-(1-(3-ethoxylphenyl)ethyl)-10H-phenothiazine] | 0.019
CC(C)Oc1cccc(C(C)c2ccc3c(c2)Nc2ccccc2S3)c1 (stereo not drawn) [Compound A12, 2-(1-(3-isopropoxylphenyl)ethyl)-10H-phenothiazine] | 0.015
CCOC(=O)c1cccc(C(C)c2ccc3c(c2)Nc2ccccc2S3)c1 (stereo not drawn) [Compound A14, 3-(1-(10H-phenothiazin-2-yl)ethyl)benzoic acid ethyl ester] | 0.005
CC(c1cccc(C(=O)OC(C)(C)C)c1)c1ccc2c(c1)Nc1ccccc1S2 (stereo not drawn) [Compound A15, 3-(1-(10H-phenothiazin-2-yl)ethyl)benzoic acid t-butyl ester] | 0.017
CC(c1cccc(NC(=O)OC(C)(C)C)c1)c1ccc2c(c1)Nc1ccccc1S2 (stereo not drawn) [Compound A16, (3-(1-(10H-phenothiazin-2-yl)ethyl)phenyl)carbamic acid t-butyl ester] | 0.049
CC(c1cccc(OC(F)(F)F)c1)c1ccc2c(c1)Nc1ccccc1S2 (stereo not drawn) [Compound A17, 2-(1-(3-(trifluoromethoxyl)phenyl)ethyl)-10H-phenothiazine] | 0.013
CC(c1ccc(F)c(F)c1)c1ccc2c(c1)Nc1ccccc1S2 (stereo not drawn) [Compound A39, 2-(1-(3,4-difluorophenyl)ethyl)-10H-phenothiazine] | 0.017
CC(c1ccc(F)c(Cl)c1)c1ccc2c(c1)Nc1ccccc1S2 (stereo not drawn) [Compound A40, 2-(1-(3-chloro-4-fluorophenyl)ethyl)-10H-phenothiazine] | 0.005
CC(c1ccc2c(c1)Nc1ccccc1S2)c1ccc(F)c(C(F)(F)F)c1 (stereo not drawn) [Compound A41, 2-(1-(4-fluoro-3-(trifluoromethyl)phenyl)ethyl)-10H-phenothiazine] | 0.018
CC(c1ccc(Cl)c(Cl)c1)c1ccc2c(c1)Nc1ccccc1S2 (stereo not drawn) [Compound A42, 2-(1-(3,4-dichlorophenyl)ethyl)-10H-phenothiazine] | 0.016
CC(c1ccc2c(c1)Nc1ccccc1S2)c1ccc(Cl)c(C(F)(F)F)c1 (stereo not drawn) [Compound A43, 2-(1-(4-chloro-3-(trifluoromethyl)phenyl)ethyl)-10H-phenothiazine] | 0.017
CC(c1ccc(Cl)c(F)c1)c1ccc2c(c1)Nc1ccccc1S2 (stereo not drawn) [Compound A44, 2-(1-(4-chloro-3-fluorophenyl)ethyl)-10H-phenothiazine] | 0.019
CC(c1ccc(C(F)(F)F)c(Cl)c1)c1ccc2c(c1)Nc1ccccc1S2 (stereo not drawn) [Compound A45, 2-(1-(3-chloro-4-(trifluoromethyl)phenyl)ethyl)-10H-phenothiazine] | 0.022
Cc1ccc(C(C)c2ccc3c(c2)Nc2ccccc2S3)cc1C (stereo not drawn) [Compound A46, 2-(1-(3,4-dimethylphenyl)ethyl)-10H-phenothiazine] | 0.021
COc1ccc(C(C)c2ccc3c(c2)Nc2ccccc2S3)cc1OC (stereo not drawn) [Compound A47, 2-(1-(3,4-dimethoxylphenyl)ethyl)-10H-phenothiazine] | 0.007
COc1cc(C(C)c2ccc3c(c2)Nc2ccccc2S3)ccc1C (stereo not drawn) [Compound A48, 2-(1-(3-methoxyl-4-methylphenyl)ethyl)-10H-phenothiazine] | 0.022
COc1ccc(C(C)c2ccc3c(c2)Nc2ccccc2S3)cc1C (stereo not drawn) [Compound A49, 2-(1-(4-methoxyl-3-methylphenyl)ethyl)-10H-phenothiazine] | 0.019

More lines, now with the values ahead:

EC50 [µM] | Structure (SMILES)
0.001 | CC(c1cccc(N)c1)c1ccc2c(c1)Nc1ccccc1S2 (stereo not drawn) [Compound A7, 3-(1-(10H-phenothiazin-2-yl)ethyl)phenylamine]
0.005 | Cc1cccc(C(C)c2ccc3c(c2)Nc2ccccc2S3)c1 (stereo not drawn) [Compound A8, 2-(1-(m-methylphenyl)ethyl)-10H-phenothiazine]
0.018 | CCc1cccc(C(C)c2ccc3c(c2)Nc2ccccc2S3)c1 (stereo not drawn) [Compound A9, 2-(1-(3-ethylphenyl)ethyl)-10H-phenothiazine]
0.025 | CC(c1cccc(OCc2ccccc2)c1)c1ccc2c(c1)Nc1ccccc1S2 (stereo not drawn) [Compound A13, 2-(1-(3-(benzyloxyl)phenyl)ethyl)-10H-phenothiazine]
0.07 | CC(c1cccc(-c2ccccc2)c1)c1ccc2c(c1)Nc1ccccc1S2 (stereo not drawn) [Compound A18, 2-(1-([1,1′-diphenyl]-3-yl)ethyl)-10H-phenothiazine]
0.006 | CC(c1ccc(F)cc1)c1ccc2c(c1)Nc1ccccc1S2 (stereo not drawn) [Compound A19, 2-(1-(4-fluorophenyl)ethyl)-10H-phenothiazine]
0.015 | CC(c1ccc(Cl)cc1)c1ccc2c(c1)Nc1ccccc1S2 (stereo not drawn) [Compound A20, 2-(1-(4-chlorophenyl)ethyl)-10H-phenothiazine]
0.006 | CC(c1ccc(C(F)(F)F)cc1)c1ccc2c(c1)Nc1ccccc1S2 (stereo not drawn) [Compound A21, 2-(1-(4-(trifluoromethyl)phenyl)ethyl)-10H-phenothiazine]
0.006 | CC(c1ccc(C#N)cc1)c1ccc2c(c1)Nc1ccccc1S2 (stereo not drawn) [Compound A22, 4-(1-(10H-phenothiazin-2-yl)ethyl)benzonitrile]
0.02 | CC(c1ccc(OC(F)(F)F)cc1)c1ccc2c(c1)Nc1ccccc1S2 (stereo not drawn) [Compound A23, 2-(1-(4-(trifluoromethoxyl)phenyl)ethyl)-10H-phenothiazine]
0.02 | CCc1ccc(C(C)c2ccc3c(c2)Nc2ccccc2S3)cc1 (stereo not drawn) [Compound A24, 2-(1-(4-ethylphenyl)ethyl)-10H-phenothiazine]
0.021 | CCCc1ccc(C(C)c2ccc3c(c2)Nc2ccccc2S3)cc1 (stereo not drawn) [Compound A25, 2-(1-(4-propylphenyl)ethyl)-10H-phenothiazine]
0.006 | CC(C)c1ccc(C(C)c2ccc3c(c2)Nc2ccccc2S3)cc1 (stereo not drawn) [Compound A26, 2-(1-(4-isopropylphenyl)ethyl)-10H-phenothiazine]
0.064 | CCCCc1ccc(C(C)c2ccc3c(c2)Nc2ccccc2S3)cc1 (stereo not drawn) [Compound A27, 2-(1-(4-butylphenyl)ethyl)-10H-phenothiazine]
0.008 | CC(C)Cc1ccc(C(C)c2ccc3c(c2)Nc2ccccc2S3)cc1 (stereo not drawn) [Compound A28, 2-(1-(4-isobutylphenyl)ethyl)-10H-phenothiazine]
0.007 | CC(c1ccc(C(C)(C)C)cc1)c1ccc2c(c1)Nc1ccccc1S2 (stereo not drawn) [Compound A29, 2-(1-(4-t-butylphenyl)ethyl)-10H-phenothiazine]
0.006 | COc1ccc(C(C)c2ccc3c(c2)Nc2ccccc2S3)cc1 (stereo not drawn) [Compound A30, 2-(1-(4-methoxylphenyl)ethyl)-10H-phenothiazine]
0.017 | CCOc1ccc(C(C)c2ccc3c(c2)Nc2ccccc2S3)cc1 (stereo not drawn) [Compound A31, 2-(1-(4-ethoxylphenyl)ethyl)-10H-phenothiazine]
0.062 | CCCOc1ccc(C(C)c2ccc3c(c2)Nc2ccccc2S3)cc1 (stereo not drawn) [Compound A32, 2-(1-(4-propoxylphenyl)ethyl)-10H-phenothiazine]
0.014 | CC(c1ccc(OCc2ccccc2)cc1)c1ccc2c(c1)Nc1ccccc1S2 (stereo not drawn) [Compound A35, 2-(1-(4-(benzyloxyl)phenyl)ethyl)-10H-phenothiazine]
0.013 | COC(=O)c1ccc(C(C)c2ccc3c(c2)Nc2ccccc2S3)cc1 (stereo not drawn) [Compound A36, 4-(1-(10H-phenothiazin-2-yl)ethyl)benzoic acid methyl ester]
0.323 | CC(c1ccc(N(c2ccccc2)c2ccccc2)cc1)c1ccc2c(c1)Nc1ccccc1S2 (stereo not drawn) [Compound A37, 4-(1-(10H-phenothiazin-2-yl)ethyl)-N,N-diphenylphenylamine]
